According to patent US20260317319A1, “NOVEL ERGOLINES AND METHODS OF TREATING MOOD DISORDERS” (Gilgamesh Pharma Inc., priority 2023, published 2026):
“Also recorded” adds a separate entry of the source.

Tests used:
C57BL/6 mice [1] = experiment: Automated mouse head twitch response (HTR) assay (video tracking); type: in vivo; details: for # HTR/20 min at Most Efficacious Dose / Most Efficacious Dose for Peak HTR/min / Most Efficacious Dose for # HTR/20 min / Peak HTR/min at Most Efficacious Dose: sc
Protocol: Disclosed compounds were tested for their ability to induce a head twitch response (HTR) in mice using an automated video tracking procedure, with the results summarized in Table 8 and FIG. 4.
Animals. Adult male C57BL/6 mice aged 8-10 weeks (Jackson Labs, Bar Harbor, ME; body weight 18-25 g) were used in this experiment. Animals were group housed under environmentally controlled temperatures and 12-hour light/dark cycles (lights on between 06:00-18:00 h), with ad libitum food and water. Mice were habituated to the facility for at least 5 days prior to testing. All animal procedures were approved by the local IACUC and conducted in accordance with the NIH Guide for the Care and Use of Laboratory Animals.
Procedure. Mice were administered one dose of the drug and immediately placed into a small open field for behavioral observation. High-speed video of animals' behavior was captured continuously for 20 min. Video recordings were imported into an image processing software, which detects multiple points of interest on each animal's body, including the left and right ear. HTR events were defined as periodic deviations of ear locations from temporally averaged ear locations. Predefined thresholds for magnitude and frequency of location deviations were used to filter HTR events from random head movements. The method was validated by comparing detected events with manual (human) observations and found to have an accuracy >95%. The total number of HTR events counted during the 20-min recording and the rate in HTR/min calculated over 2-min bins were determined for each animal at each dose.
Statistical Analysis. The data points shown are the mean±standard error of the mean (SEM).

C57BL/6 mice [2] = experiment: Mouse head twitch response (HTR) assay (observer-counted); type: in vivo; details: for efficacy in HTR assay: maximal effect
Protocol: Agonists of the 5-HT2A receptor are well known to induce this effect in rodents and the potency of this HTR is correlated with hallucinogenic potency in humans.
Animals. Adult male C57BL/6 mice, aged 6-8 weeks (body weight 20-25 g) were used in this experiment. Animals were housed under controlled temperatures and 12-hour light/dark cycles (lights on between 07:00-19:00 h), with ad libitum food and water. This study was carried out in strict accordance with the requirements of the Committee for the Purpose of Control and Supervision of Experiments on Animals (CPCSEA), India. All efforts were made to minimize suffering.
Procedure. Mice were administered one dose of the drug and immediately placed into a small open field for behavioral observation. Animals were observed continuously for 20 mins and the number of head twitches (HTs) were counted by an observer blind to the treatment condition.
Statistical Analysis. The data points shown are the mean±standard error of the mean (SEM). Analysis was performed using GraphPad Prism 6. Curves were fit using a non-linear gaussian distribution to calculate ED50 and Emax values.
Additional disclosed compounds were tested in the mouse head twitch response (HTR) assay according to the procedure described in Example 57 (administered SC). […] Lastly, compounds with much larger benzyl and phenethyl substituents on the amine nitrogen (e.g., 10 and 11) were low efficacy in this assay, consistent with their bias toward arrestin signaling (see Example 55).

5-HT2C receptor = target: T1, 5-HT2C receptor (Homo sapiens, UniProt P28335); experiment: Ca2+ flux functional assay at 5-HT2C (WuXi 5-HT2C protocol); type: cell-based; parameters: expressed in transfected cells; details: for Emax: agonist, tested using WuXi 5-HT2C protocol, max dose, read-out: 5-HT2C % Act @ Max Dose (* WuXi protocol)
T1 sequence (P28335 33-458): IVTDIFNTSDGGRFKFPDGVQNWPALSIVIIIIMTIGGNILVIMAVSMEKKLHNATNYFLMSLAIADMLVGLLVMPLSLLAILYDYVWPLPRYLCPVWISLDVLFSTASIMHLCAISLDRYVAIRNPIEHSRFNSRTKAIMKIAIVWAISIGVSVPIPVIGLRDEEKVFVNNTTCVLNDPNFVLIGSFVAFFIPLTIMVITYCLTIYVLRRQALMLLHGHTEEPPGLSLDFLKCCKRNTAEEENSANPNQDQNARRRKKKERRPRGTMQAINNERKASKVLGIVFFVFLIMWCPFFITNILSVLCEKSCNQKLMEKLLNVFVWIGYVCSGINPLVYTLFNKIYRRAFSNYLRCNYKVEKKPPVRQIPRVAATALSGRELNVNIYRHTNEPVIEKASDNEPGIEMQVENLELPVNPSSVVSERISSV
Protocol: Disclosed compounds were tested for agonist activity at several serotonin receptor subtypes (5-HT2A, […], 5-HT2C, and 5-HT1A) using Ca^2+ flux functional assays and the 5-HT1B receptor using a cAMP accumulation assay, with the results summarized in Table 4. […] Potent agonist activity was also observed at the other serotonin receptors tested, although the selectivity profile among the receptors varied across compounds. […] However, at the same time, the N-propyl compounds were more efficacious agonists at 5-HT2B than the corresponding N-methyl compounds. The selectivity of disclosed compounds for 5-HT2A over 5-HT2C and 5-HT1A was less predictable and varied widely across compounds. […] An azetidinyl amide substituent tended to increase potency at 5-HT1A relative to 5-HT2A.
Functional Assays at 5-HT2A, 5-HT2B, and 5-HT1A. Agonist activity at 5-HT2A, 5-HT2B, 5HT2C and 5-HT1A receptors was determined using a FLIPR Ca^2+ flux assay at WuXi AppTec (Hong Kong) Limited according to their standard protocols. Briefly, stably transfected cells expressing the receptor of interest and Gα15 in the case of 5-HT1A (HEK293 for 5-HT2A and 5-HT2B; CHO cells for 5-HT1A) were grown and plated in a 384 well plate and incubated at 37° C. and 5% CO2 overnight. A solution of 250 mM probenecid in 1 mL FLIPR assay buffer was prepared fresh. This was combined with a fluorescent dye (Fluo-4 Direct™) to make a final assay concentration of 2.5 mM. Compounds were diluted 1:3.16 for 10 points and 750 nL was added to a 384 well compound plate using ECHO along with 30 μL assay buffer. The fluorescent dye was then added to the assay plate along with assay buffer to a final volume of 40 μL. The cell plate was incubated for 50 min at 37° C. and 5% CO2 and placed into the FLIPR Tetra along with the compound plate. 10 μL of references and compounds were then transferred from the compound plate into the cell plate and the fluorescent signal was read.

[3] = 20 min recording, mean, at each compound's most efficacious dose (35*, 43*, 44*: suppressed below vehicle 14.5, dose is that of least suppression)
[4] = dose giving highest peak HTR/min (35*, 43*, 44*: dose that resulted in the least suppression)
[5] = dose giving most HTR/20 min (35*, 43*, 44*: dose that resulted in the least suppression)
[6] = rate over 2-min bins, mean, at each compound's most efficacious dose (35*, 43*, 44*: suppressed below vehicle 1.62, dose is that of least suppression)
[7] = SC, most efficacious dose 3.2 mg/kg

CCCN1C[C@H](C(=O)N(CC)CC)C=C2c3cccc4[nH]cc(c34)C[C@H]21 [Compound 1, (6aR,9R)—N,N-diethyl-7-propyl-4,6,6a,7,8,9-hexahydroindolo[4,3-fg]quinoline-9-carboxamide]
# HTR/20 min at Most Efficacious Dose (C57BL/6 mice [1]; [3]): 20.625 HTR/20 min
Most Efficacious Dose for Peak HTR/min (C57BL/6 mice [1]; [4]): (0.32) mg/kg, sc
Most Efficacious Dose for # HTR/20 min (C57BL/6 mice [1]; [5]): (0.32) mg/kg, sc
Peak HTR/min at Most Efficacious Dose (C57BL/6 mice [1]; [6]): 2.19 HTR/min
head twitch response (C57BL/6 mice [2]; 20 min observation, FIG. 1): robust and dose-dependent HTR
HTR at most efficacious dose (bound) (C57BL/6 mice [2]; SC, 20 min): > 15 HTR

CCN(CC)C(=O)[C@@H]1C=C2c3cccc4[nH]cc(c34)C[C@H]2N(CCCF)C1 [Compound 2, (6aR,9R)—N,N-diethyl-7-(3-fluoropropyl)-4,6,6a,7,8,9-hexahydroindolo[4,3-fg]quinoline-9-carboxamide]
HTR at most efficacious dose (bound) (C57BL/6 mice [2]; SC, 20 min): > 15 HTR

CCCN1C[C@H](C(=O)N[C@H](C)CC)C=C2c3cccc4[nH]cc(c34)C[C@H]21 [Compound 3, (6aR,9R)—N—((R)-sec-butyl)-7-propyl-4,6,6a,7,8,9-hexahydroindolo[4,3-fg]quinoline-9-carboxamide]
HTR at most efficacious dose (bound) (C57BL/6 mice [2]; SC, 20 min): > 15 HTR
# HTR/20 min at Most Efficacious Dose (C57BL/6 mice [2]; SC, most efficacious dose 0.32 mg/kg): 27.0 HTR/20 min

CCCN1C[C@H](C(=O)N2[C@@H](C)C[C@@H]2C)C=C2c3cccc4[nH]cc(c34)C[C@H]21 [Compound 4, ((2S,4S)-2,4-dimethylazetidin-1-yl)((6aR,9R)-7-propyl-4,6,6a,7,8,9-hexahydroindolo[4,3-fg]quinolin-9-yl)methanone]
efficacy in HTR assay (C57BL/6 mice [2]; SC): less efficacious than its N-methyl counterpart compound Int11; also recorded: lower efficacy than analogous compounds bearing other amide substituents

CCCN1C[C@H](C(=O)NC(CC)CC)C=C2c3cccc4[nH]cc(c34)C[C@H]21 [Compound 6, (6aR,9R)—N-(pentan-3-yl)-7-propyl-4,6,6a,7,8,9-hexahydroindolo[4,3-fg]quinoline-9-carboxamide]
HTR at most efficacious dose (bound) (C57BL/6 mice [2]; SC, 20 min): > 15 HTR

CCN(CC)C(=O)[C@@H]1C=C2c3cccc4[nH]cc(c34)C[C@H]2N(Cc2ccccc2OC)C1 [Compound 10, (6aR,9R)—N,N-diethyl-7-(2-methoxybenzyl)-4,6,6a,7,8,9-hexahydroindolo[4,3-fg]quinoline-9-carboxamide]
efficacy in HTR assay (C57BL/6 mice [2]; SC): low efficacy
# HTR/20 min at Most Efficacious Dose (C57BL/6 mice [2]; [7]): 6.5 HTR/20 min

CCN(CC)C(=O)[C@@H]1C=C2c3cccc4[nH]cc(c34)C[C@H]2N(CCc2ccccc2OC)C1 [Compound 11, (6aR,9R)—N,N-diethyl-7-(2-methoxyphenethyl)-4,6,6,7,8,9-hexahydroindolo[4,3-fg]quinoline-9-carboxamide]
ED50 (HTR) (C57BL/6 mice [2]; SC, 20 min, curve fit poor in some cases): 2.205 mg/kg
Emax, HTR/20 min (C57BL/6 mice [2]; SC, curve fit poor in some cases): 19.79 HTR/20 min
efficacy in HTR assay (C57BL/6 mice [2]; SC): low efficacy
# HTR/20 min at Most Efficacious Dose (C57BL/6 mice [2]; [7]): 12.0 HTR/20 min

CCN(CC)C(=O)[C@@H]1C=C2c3cccc4[nH]cc(c34)C[C@H]2N(Cc2cccc(O)c2)C1 [Compound 62, (6aR,9R)—N,N-diethyl-7-(3-hydroxybenzyl)-4,6,6a,7,8,9-hexahydroindolo[4,3-fg]quinoline-9-carboxamide]
EC50 (5-HT2C receptor): > 10 µM
Emax (5-HT2C receptor): 20.3%

CCN(CC)C(=O)[C@@H]1C=C2c3cccc4[nH]cc(c34)C[C@H]2N(Cc2ccon2)C1 [Compound 70, (6aR,9R)—N,N-diethyl-7-(isoxazol-3-ylmethyl)-4,6,6a,7,8,9-hexahydroindolo[4,3-fg]quinoline-9-carboxamide]
EC50 (5-HT2C receptor): > 10 µM
Emax (5-HT2C receptor): 23.9%

CCN(CC)C(=O)[C@@H]1C=C2c3cccc4[nH]cc(c34)C[C@H]2N(Cc2cocn2)C1 [Compound 73, (6aR,9R)—N,N-diethyl-7-(oxazol-4-ylmethyl)-4,6,6a,7,8,9-hexahydroindolo[4,3-fg]quinoline-9-carboxamide]
EC50 (5-HT2C receptor): 1.72 µM
Emax (5-HT2C receptor): 74%

CCN(CC)C(=O)[C@@H]1C=C2c3cccc4[nH]cc(c34)C[C@H]2N(Cc2cccc(C#N)c2)C1 [Compound 76, (6aR,9R)—N,N-diethyl-7-(3-cyanobenzyl)-4,6,6a,7,8,9-hexahydroindolo[4,3-fg]quinoline-9-carboxamide]
EC50 (5-HT2C receptor): > 10 µM
Emax (5-HT2C receptor): 0.14%

CCN(CC)C(=O)[C@@H]1C=C2c3cccc4[nH]cc(c34)C[C@H]2N(Cc2ccccc2)C1 [Compound 82, (6aR,9R)-7-benzyl-N,N-diethyl-4,6,6a,7,8,9-hexahydroindolo[4,3-fg]quinoline-9-carboxamide]
# HTR/20 min at Most Efficacious Dose (C57BL/6 mice [1]; [3]): 11.25 HTR/20 min
Most Efficacious Dose for Peak HTR/min (C57BL/6 mice [1]; [4]): (0.1) mg/kg, sc
Most Efficacious Dose for # HTR/20 min (C57BL/6 mice [1]; [5]): (0.1) mg/kg, sc
Peak HTR/min at Most Efficacious Dose (C57BL/6 mice [1]; [6]): 0.56 HTR/min
EC50 (5-HT2C receptor): > 10 µM
Emax (5-HT2C receptor): 15.6%

CCN(CC)C(=O)[C@@H]1C=C2c3cccc4[nH]cc(c34)C[C@H]2N(C)C1 [LSD, lysergic acid diethylamide, reference compound]
head twitch response, automated (C57BL/6 mice [1]; in vivo): potent and robust increase in HTRs
# HTR/20 min at Most Efficacious Dose (C57BL/6 mice [1]; in vivo): 44.62 HTR/20 min
Most Efficacious Dose for # HTR/20 min (C57BL/6 mice [1]; in vivo): (0.1) mg/kg, sc
Most Efficacious Dose for Peak HTR/min (C57BL/6 mice [1]; in vivo): (0.032) mg/kg, sc
Peak HTR/min at Most Efficacious Dose (C57BL/6 mice [1]; in vivo): 4.13 HTR/min
